Measurements taken from BindingDB's records for doi:10.1021/jm980560x (University of Minnesota, 1999).

How the values were obtained:
[1] = Displacement of [3H]vesamicol from Vesicular Acetylcholine Transporter (VAChT)
[2] = biological target: Sigma-2 receptor (Rattus norvegicus); test: Binding affinity against Sigma-2 receptor in rat liver membranes using [3H]DTG (DuPont-NEN) as radioligand in the presence of (+)-pentazocine (100 nM)

Compound | Ki [1] | Ki [2]
O[C@@H]1CCNC[C@H]1N1CCC(c2ccccc2)CC1 | 2900 nM | –
O[C@@H]1C[C@@H]2[C@H](CCCN2Cc2cccc(I)c2)C[C@H]1N1CCC(c2ccccc2)CC1 [(4aR,6R,7R,8aR)-1-(3-Iodo-benzyl)-6-(4-phenyl-piperidin-1-yl)-decahydro-quinolin-7-ol] | 5.2 nM | –
O[C@@H]1C[C@@H]2[C@H](CCCN2Cc2ccc(F)cc2)C[C@H]1N1CCC(c2ccccc2)CC1 [(4aR,6R,7R,8aR)-1-(4-Fluoro-benzyl)-6-(4-phenyl-piperidin-1-yl)-decahydro-quinolin-7-ol] | 10 nM | –
O[C@@H]1C[C@H]2CCCN(C/C=C/I)[C@@H]2C[C@H]1N1CCC(c2ccccc2)CC1 [(4aR,6R,7R,8aR)-1-((E)-3-Iodo-allyl)-7-(4-phenyl-piperidin-1-yl)-decahydro-quinolin-6-ol] | 0.4 nM | 363 nM
O[C@@H]1CCN(Cc2cccc(I)c2)C[C@H]1N1CCC(c2ccccc2)CC1 [(-)-1''-(3-Iodo-benzyl)-4-phenyl-[1,3'']bipiperidinyl-4''-ol] | – | 190 nM
O=C(c1ccccc1)N1CCC[C@@H]2C[C@@H](O)[C@H](N3CCC(c4ccccc4)CC3)C[C@H]21 [[(4aR,6R,7R,8aR)-6-Hydroxy-7-(4-phenyl-piperidin-1-yl)-octahydro-quinolin-1-yl]-phenyl-methanone] | 0.3 nM | –
O[C@@H]1C[C@H]2CCCN(Cc3cccc(I)c3)[C@@H]2C[C@H]1N1CCC(c2ccccc2)CC1 [trans-trans-1-(3-iodobenzyl)-7-(4-phenylpiperidin-1-yl)-decahydroquinolin-6-ol] | 0.26 nM | –
O[C@@H]1C[C@H]2CCCN(Cc3ccc(F)cc3)[C@@H]2C[C@H]1N1CCC(c2ccccc2)CC1 [trans-trans-1-(4-fluorobenzyl)-7-(4-phenylpiperidin-1-yl)-decahydroquinolin-6-ol] | 0.99 nM | –
